Data set [1] is described as follows: Assay 1: half-life and plasma clearance upon intravenous administration to beagle dogs. The data set is classed as in vivo. To be noted: dog, iv dose up to 0.3 mg/kg, plasma, geometric mean, Phoenix PK/PD (Example 1: internal tool). As for the experimental part: Assay 1: Determination of Half-Life and Plasma Clearance of Compounds of the Invention Upon Administration to Beagle Dogs
Compounds according to the invention were administered as an intravenous (iv) dose (up to 0.3 mg/kg) to beagle dogs (minimum n=3). Blood samples were collected from these beagle dogs up to 168 h after intravenous administration and up to 3024 h after subcutaneous administration. A portion of each whole blood sample was processed to plasma. Compound concentrations were determined in plasma using LCMS/MS. Phoenix™ Pharmacokinetic and Pharmacodynamic (PK/PD) was used to determine half-life and plasma clearance values. Only for Example 1, an internal tool available to the inventors was used to determine the half-life and plasma clearance values.

The nature of data set [2]: log P by HPLC on reversed phase columns (LC-MS Method 0). Conditions: 0.1% formic acid/acetonitrile; Method 0, acidic range, 0.1% formic acid in water and acetonitrile; read-out: log P (HCOOH). The data set is classed as physicochemical. How it is done:
Measurement of log P values was performed according to EEC directive 79/831 Annex V.A8 by HPLC (High Performance Liquid Chromatography) on reversed phase columns with the following methods, instrument(s): Agilent 1100 LC system, Agilent MSD system, HTS PAL; Waters IClass Acquity UPLC, SQD2 (MS), PDA (UV). • ^[a]log P value is determined by measurement of LC-UV, in an acidic range, with 0.1% formic acid in water and acetonitrile as eluent (linear gradient from 10% acetonitrile to 95% acetonitrile). • ^[b]log P value is determined by measurement of LC-UV, in a neutral range, with 0.001 molar ammonium acetate solution in water and acetonitrile as eluent (linear gradient from 10% acetonitrile to 95% acetonitrile).
Calibration was done with straight-chain alkan-2-ones (with 3 to 16 carbon atoms) with known log P values (measurement of log P values using retention times with linear interpolation between successive alkanones). Lambda-max-values were determined using UV-spectra from 200 nm to 400 nm and the peak values of the chromatographic signals.

`O=C(N[C@H]1CCOc2ccccc21)c1cnc2c(-c3cc(F)cc(F)c3F)c(F)ccc2c1N1CC(F)C1` [Example 7, N-[(4S)-3,4-Dihydro-2H-chromen-4-yl]-7-fluoro-4-(3-fluoroazetidin-1-yl)-8-(2,3,5-trifluorophenyl)quinoline-3-carboxamide] showed a clearance in data set [1] of 0.833 mL/min/kg. Besides, the half-life in data set [1] (read-out: Half-life (h/Form) iv, geometric mean (converted)) was 124 h. In data set [2], the chromatographic logP worked out at 1.93.

Usually clearance stands for a measure of how efficiently the substance is removed, as volume per time. A lower clearance goes with inefficient removal.
